In patent US9562085B2, “Antimicrobial peptide” (priority 2013, dated 2017):
Non-standard residues stand in square brackets, D forms with d. Residues, ends and D or L forms follow the SMILES beside them. *: point of attachment. Decanoyl = CCCCCCCCCC(=O)*; Hexanoyl = CCCCCC(=O)*

System: S. aureus JAR
Format: cell-based
Conditions: for LC99.9 (μM) (50% plasma) / LC99.9 (μM) (PBS): JAR, 2 h
Protocol: S. aureus JAR is described in Campoccia et al. (Int. J. Artif. Organs, 2008 September; 31(9):841-7).
For the in vitro killing assay with P10 variants, S. aureus JAR ([…] CFU/ml) were incubated for 2 hours at 37° C. with various concentrations of the peptides in PBS or in PBS/human plasma (1/1, v/v). […] The LC99.9 is the average value of two independent experiments.

Row | Compound | LC99.9 (μM) (50% plasma) | LC99.9 (μM) (PBS) | antimicrobial activity, in words (statements referring to Tables 2-6)
1 | CC[C@@H](C)[C@@H](NC(=O)[C@H](NC(=O)[C@@H](CCC(=O)O)NC(=O)[C@@H](CCCCN)NC(=O)[C@@H](CC(C)C)NC(=O)[C@@H](CCCCN)NC(=O)[C@@H](CCCNC(=N)N)NC(=O)[C@@H](Cc1c[nH]c2ccccc12)NC(=O)[C@@H](CC(C)C)NC(=O)[C@@H](CCCNC(=N)N)NC(=O)[C@@H](CCC(N)=O)NC(=O)[C@H](NC(=O)[C@@H](CC(C)C)NC(=O)[C@@H](CCCNC(=N)N)NC(=O)[C@H](NC(=O)[C@@H](CC(C)C)NC(=O)[C@H](N)CCCNC(=N)N)[C@H](C)O)C(C)C)C(C)C)C(=O)N[C@H](CCCCN)C(=O)N[C@H](CCCCN)C(=O)N[C@H](Cc1ccc(O)cc1)C(=O)N[C@H](CCC(=O)O)C(=O)N[C@H](CCCNC(=N)N)C(=O)N[C@H](C)C(=O)N[C@H](CC(C)C)C(N)=O [Peptide 1241-03, rltrlvqrlwrklkevikkyeralB] (H-[dR][dL][dT][dR][dL][dV][dQ][dR][dL][dW][dR][dK][dL][dK][dE][dV][dI][dK][dK][dY][dE][dR][dA][dL]-NH2) | >102.4 µM | 3.2 µM | possesses antimicrobial activity
2 | CC[C@H](C)[C@H](NC(=O)[C@H](CCCCN)NC(=O)[C@H](CCCCN)NC(=O)[C@H](Cc1ccc(O)cc1)NC(=O)[C@H](CCC(=O)O)NC(=O)[C@H](CCCNC(=N)N)NC(=O)[C@H](C)NC(=O)[C@@H](CC(C)C)NC(C)=O)C(=O)N[C@H](C(=O)N[C@@H](CCC(=O)O)C(=O)N[C@@H](CCCCN)C(=O)N[C@@H](CC(C)C)C(=O)N[C@@H](CCCCN)C(=O)N[C@@H](CCCNC(=N)N)C(=O)N[C@@H](Cc1c[nH]c2ccccc12)C(=O)N[C@@H](CC(C)C)C(=O)N[C@@H](CCCNC(=N)N)C(=O)N[C@@H](CCC(N)=O)C(=O)N[C@H](C(=O)N[C@@H](CC(C)C)C(=O)N[C@@H](CCCNC(=N)N)C(=O)N[C@H](C(=O)N[C@@H](CC(C)C)C(=O)N[C@@H](CCCNC(=N)N)C(N)=O)[C@@H](C)O)C(C)C)C(C)C [Peptide 1301-1, JlAREYKKIVEKLKRWLRQVLRTLRB] (Ac-[dL]AREYKKIVEKLKRWLRQVLRTLR-NH2) | 38.4 µM | 0.6 µM | 
3 | CCCCCC(=O)N[C@@H](CC(C)C)C(=O)N[C@@H](C)C(=O)N[C@@H](CCCNC(=N)N)C(=O)N[C@@H](CCC(=O)O)C(=O)N[C@@H](Cc1ccc(O)cc1)C(=O)N[C@@H](CCCCN)C(=O)N[C@@H](CCCCN)C(=O)N[C@H](C(=O)N[C@H](C(=O)N[C@@H](CCC(=O)O)C(=O)N[C@@H](CCCCN)C(=O)N[C@@H](CC(C)C)C(=O)N[C@@H](CCCCN)C(=O)N[C@@H](CCCNC(=N)N)C(=O)N[C@@H](Cc1c[nH]c2ccccc12)C(=O)N[C@@H](CC(C)C)C(=O)N[C@@H](CCCNC(=N)N)C(=O)N[C@@H](CCC(N)=O)C(=O)N[C@H](C(=O)N[C@@H](CC(C)C)C(=O)N[C@@H](CCCNC(=N)N)C(=O)N[C@H](C(=O)N[C@@H](CC(C)C)C(=O)N[C@@H](CCCNC(=N)N)C(N)=O)[C@@H](C)O)C(C)C)C(C)C)[C@@H](C)CC [Peptide 1302-8, bLAREYKKIVEKLKRWLRQVLRTLRB] (Hexanoyl-LAREYKKIVEKLKRWLRQVLRTLR-NH2) | 102.4 µM | 1.2 µM | 
4 | Ac-LAREYKKIVEKLKRWLRQVLRQLR-NH2 [Peptide 1302-52, JLAREYKKIVEKLKRWLRQVLRQLRB] | 76.8 µM | 1.6 µM | 
5 | Ac-LAHEYKKIVEKLKRWLRQVLRTLR-NH2 [Peptide 1302-24, JLAHEYKKIVEKLKRWLRQVLRTLRB] | 102.4 µM | 1.6 µM | 
6 | Ac-AAREYKKIVEKLKRWLRQVLRTLR-NH2 [Peptide 1302-19, JAAREYKKIVEKLKRWLRQVLRTLRB] | 76.8 µM | 1.6 µM | 
7 | Ac-EYKKIVEKLKRWLRQVLR-NH2 [Peptide 1302-61, JEYKKIVEKLKRWLRQVLRB] | 102.4 µM | 2.4 µM | 
8 | Ac-YKKIVEKLKRWLRQVLRTLR-NH2 [Peptide 1302-59, JYKKIVEKLKRWLRQVLRTLRB] | 51.2 µM | 1.6 µM | 
9 | CCCCCCCCCC(=O)N[C@@H](CC(C)C)C(=O)N[C@@H](C)C(=O)N[C@@H](CCCNC(=N)N)C(=O)N[C@@H](CCC(=O)O)C(=O)N[C@@H](Cc1ccc(O)cc1)C(=O)N[C@@H](CCCCN)C(=O)N[C@@H](CCCCN)C(=O)N[C@H](C(=O)N[C@H](C(=O)N[C@@H](CCC(=O)O)C(=O)N[C@@H](CCCCN)C(=O)N[C@@H](CC(C)C)C(=O)N[C@@H](CCCCN)C(=O)N[C@@H](CCCNC(=N)N)C(=O)N[C@@H](Cc1c[nH]c2ccccc12)C(=O)N[C@@H](CC(C)C)C(=O)N[C@@H](CCCNC(=N)N)C(=O)N[C@@H](CCC(N)=O)C(=O)N[C@H](C(=O)N[C@@H](CC(C)C)C(=O)N[C@@H](CCCNC(=N)N)C(=O)N[C@H](C(=O)N[C@@H](CC(C)C)C(=O)N[C@@H](CCCNC(=N)N)C(N)=O)[C@@H](C)O)C(C)C)C(C)C)[C@@H](C)CC [Peptide 1302-9, jLAREYKKIVEKLKRWLRQVLRTLRB] (Decanoyl-LAREYKKIVEKLKRWLRQVLRTLR-NH2) | >102.4 µM | 1.6 µM | 
10 | Ac-IAREYKKIVEKLKRWLRQVLRTLR-NH2 [Peptide 1302-17, JIAREYKKIVEKLKRWLRQVLRTLRB] | 102.4 µM | 1.6 µM | 
11 | Ac-LAREYKKIVEKLKRWLRQVL-NH2 [Peptide 1302-60, JLAREYKKIVEKLKRWLRQVLB] | 102.4 µM | 1.6 µM | 
12 | CC[C@H](C)[C@H](NC(=O)[C@H](CCCCN)NC(=O)[C@H](CCCCN)NC(=O)[C@H](Cc1ccc(O)cc1)NC(=O)[C@H](CCC(=O)O)NC(=O)[C@@H](CCCNC(=N)N)NC(=O)[C@H](C)NC(=O)[C@H](CC(C)C)NC(C)=O)C(=O)N[C@H](C(=O)N[C@@H](CCC(=O)O)C(=O)N[C@@H](CCCCN)C(=O)N[C@@H](CC(C)C)C(=O)N[C@@H](CCCCN)C(=O)N[C@@H](CCCNC(=N)N)C(=O)N[C@@H](Cc1c[nH]c2ccccc12)C(=O)N[C@@H](CC(C)C)C(=O)N[C@@H](CCCNC(=N)N)C(=O)N[C@@H](CCC(N)=O)C(=O)N[C@H](C(=O)N[C@@H](CC(C)C)C(=O)N[C@@H](CCCNC(=N)N)C(=O)N[C@H](C(=O)N[C@@H](CC(C)C)C(=O)N[C@@H](CCCNC(=N)N)C(N)=O)[C@@H](C)O)C(C)C)C(C)C [Peptide 1301-3, JLArEYKKIVEKLKRWLRQVLRTLRB] (Ac-LA[dR]EYKKIVEKLKRWLRQVLRTLR-NH2) | 38.4 µM | 0.6 µM | 
